The source of these data is patent US10047093B2, “Substituted imidazo[1,2-B]pyridazines as protein kinase inhibitors” (Tolero Pharmaceuticals, Inc., priority 2011, dated 2018).

In one series the target is Pim-1 kinase (Homo sapiens (Human), UniProt P11309). Nature of the series: Pim-1 kinase inhibition assay (Promega Kinase-Glo). The series is classed as biochemical. Particulars: read-out: IC50 on Pim1. An excerpt:
One illustrative manner in which Pim-1 kinase activity can be determined is by quantifying the amount of ATP remaining in solution after an in vitro Pim-1 kinase reaction. The Kinase-Glo Assay Kit (Promega, Inc., Madison, Wis.) allows this. The amount of ATP remaining in the solution after the kinase reaction serves as a substrate for the luciferase to catalyze luciferin to oxyluciferin plus one photon of light. Thus, the luminescent signal read by the Luminoskan Ascent Instrument (Thermo Electron Corp., Milford, Mass.) correlates with the amount of ATP present after the kinase reaction and inversely correlates with the amount of kinase activity. […] These assays are set up in duplicate 50 ul volumes in white, flat bottom 96 well plates. […] This solution is incubated at 30 degrees Celsius at 360 rpm for two hours. Following the incubation, 50 ul of Kinase-Glo reagent is added to each well, including all positive and negative control wells, and incubated at room temperature for 15 minutes. […] The IC50 values can then be calculated for each inhibitor tested.

The next series relates to UM-UC-3 xenograft tumors. Nature of the series: UM-UC-3 established mouse xenograft. It is filed as in vivo. An excerpt:
(§1) Male and female Nu/Nu mice were purchased from Harlan Sprague Dawley (Indianapolis, Ind.). Female Nu/Nu mice were used for all xenograft evaluations with the exception of the PC-3 xenografts where male Nu/Nu mice were used. Cell lines were expanded in vitro in complete media, and if adherent were harvested by trypsin-EDTA, centrifuged and resuspended in PBS 1:1 with Matrigel (BD Bioscienes). Cells were inoculated subcutaneously in the right hind flank of mice. […] Tumor volumes and body weights were determined twice a week, and tumor weights were measured at the completion of the translational xenograft studies.

In the next series the test system is PC-3 xenograft tumors. Nature of the series: PC-3 established mouse xenograft. It is filed as in vivo.
Text: as §1

In another series the test system is hematological cell lines. Kind of series: In vitro viability assay, panel of hematological cell lines. It is filed as cell-based. To be noted: most sensitive hematological cell lines. Here is the method: (§2) Adherent or suspension cancer cell lines were seeded at 2000-5000 cells/well in a 96-well plate, or 1000-2000 cells/well in a 384-well plate. Suspension cells were treated with drug the same day as seeding, while adherent cells were incubated overnight at 37° C. in 5% CO2 prior to drug treatment. All cells were treated for 72 hours, then lysed with ATPlite (Perkin Elmer) and measured on an Envision microplate reader. IC50 values were determined using GraphPad Prism software.
(§3) Over 35 cell lines were tested, and the most sensitive cell lines from various indications were selected and verified by multiple EC50 determinations (FIG. 6). […] Anti-proliferative activity using PIM-2 shRNA against FLT3-ITD driven leukemia lines has been observed (Adam (2006) Cancer Res 66:3828-35 data not shown).

The subject of the next series is UM-UC-3. Kind of series: In vitro viability/proliferation assay, UM-UC-3. It is filed as cell-based. To be noted: Homo sapiens, UMUC3; bladder line UM-UC-3. On the procedure:
as §2, §3

For series [1], the system named is ML-2 cells (wild-type FLT3). Nature of the series: ML-2 mouse xenograft. The series is classed as in vivo. To be noted: ML-2 (wild-type FLT3) xenograft. An excerpt:
(§4) Male and female Nu/Nu mice were purchased from Harlan Sprague Dawley (Indianapolis, Ind.). Female Nu/Nu mice were used for all xenograft evaluations with the exception of the PC-3 xenografts where male Nu/Nu mice were used. Cell lines were expanded in vitro in complete media, and if adherent were harvested by trypsin-EDTA, centrifuged and resuspended in PBS 1:1 with Matrigel (BD Bioscienes). Cells were inoculated subcutaneously in the right hind flank of mice. When tumors reached 100-200 mm^3 by caliper measurement, mice were randomized and dosing of SGI-9481 or vehicle control began and continued every day for 5 days (QDx5) with 2 days off for 18-21 days. Tumor volumes and body weights were determined twice a week, and tumor weights were measured at the completion of the translational xenograft studies.

A further series has as its system MV-4-11 (FLT3-ITD). Nature of the series: MV-4-11 mouse xenograft. The series is classed as in vivo. To be noted: MV-4-11 (FLT3-ITD) established xenografts.
Text: as §4

Where [2] appears, read: 125 mg/kg, less than with 200 mg/kg.

Sequence of Pim-1 kinase (P11309 whole entry): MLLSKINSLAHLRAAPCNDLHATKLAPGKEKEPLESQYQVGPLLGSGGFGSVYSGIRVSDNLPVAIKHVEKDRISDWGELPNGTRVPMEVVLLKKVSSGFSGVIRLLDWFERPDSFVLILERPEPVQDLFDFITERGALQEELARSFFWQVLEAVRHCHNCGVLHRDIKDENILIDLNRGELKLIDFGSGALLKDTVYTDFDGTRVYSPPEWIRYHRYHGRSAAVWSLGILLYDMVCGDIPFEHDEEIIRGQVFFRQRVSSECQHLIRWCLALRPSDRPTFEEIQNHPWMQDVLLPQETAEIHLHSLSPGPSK

A word on the IC50: it is the concentration at which inhibition is half-maximal. For the compound “4-(((3-(3-(Trifluoromethyl)phenyl)-[1,2,4]triazolo[4,3-a]pyridin-6-yl)amino)methyl)tetrahydro-2H-thiopyran 1,1-dioxide [Compound 8-111]”, the 50% inhibitory concentration (IC50) at Pim-1 kinase is greater than 30 µM.

By EC50 is commonly meant the midpoint of the concentration-response curve. As for `CC(C)(O)[C@H]1CC[C@H](Nc2ccc3ncc(-c4cccc(C(F)(F)F)c4)n3n2)CC1` [Compound 8-31], the tumor growth inhibition entry in the series on UM-UC-3 xenograft tumors (setting [2]) and in the series on PC-3 xenograft tumors (setting [2]) was “significant tumor growth inhibition” throughout. In addition, the “body weight and gross adverse toxicity” value in the series with UM-UC-3 xenograft tumors (oral dosing of 200 mg/kg) and in the series with PC-3 xenograft tumors (oral dosing of 200 mg/kg) was “no significant changes in body weight or gross adverse toxicity” throughout. Also, the “tumor growth measured by volume (caliper) and by final tumor weight” value in the series with UM-UC-3 xenograft tumors (oral dosing of 200 mg/kg) and with PC-3 xenograft tumors (oral dosing of 200 mg/kg) was “significantly reduced” each time. Also, the EC50 in the series with hematological cell lines and in the series on UM-UC-3 was 1 to 2 µM in each case. Moreover, the tumor growth result in series [1] is on record as “significant tumor growth inhibition”. Further, in the series with MV-4-11 (FLT3-ITD), the “tumor growth of established xenografts” value is given as “induced regressions”.

For the compound `C[C@]1(O)CC[C@H](Nc2ccc3nnc(-c4cccc(OC(F)(F)F)c4)n3c2)CC1` [Compound 8-100, 1-Methyl-4-((3-(3-(trifluoromethoxy)phenyl)-[1,2,4]triazolo[4,3-a]pyridin-6-yl)amino)-trans-cyclohexanol], at Pim-1 kinase, the IC50 came to 1.64 µM.
